Experiment: method code SF-AS, from PMID: 6686445
Settings: pH 7.4

Point of comparison: `O=C1CN=C(c2ccccc2Cl)c2cc(Cl)ccc2N1`, logD 3.15. Against it:
- O=C1CN=C(c2ccccc2)c2cc(F)ccc2N1 — lower, 2.32
- COCN1C(=O)CN=C(c2ccccc2Cl)c2cc(Cl)ccc21 — within 0.2 log units, 3.23
- CSCN1C(=O)CN=C(c2ccccc2)c2cc(N)ccc21 — lower, 1.92
- Cc1ccccc1C1=NCC(=O)Nc2ccc(Cl)cc21 — within 0.2 log units, 3.12
- O=C1CN=C(c2ccccc2)c2cc(C(F)(F)F)ccc2N1 — within 0.2 log units, 3.1
- O=C1CN=C(c2ccccc2Br)c2cc(Cl)ccc2N1 — within 0.2 log units, 3.17
- O=C1CN=C(c2ccccc2F)c2cc(Cl)ccc2N1CC(O)CO (stereo not given) — lower, 1.51
- COCN1C(=O)C(O)N=C(c2ccccc2)c2cc(N)ccc21 (stereo not given) — lower, 0.75
- CSc1ccc2c(c1)C(c1ccccc1)=NCC(=O)N2C — lower, 2.95
- O=C1CN=C(c2ccc(C(F)(F)F)cc2)c2ccccc2N1 — within 0.2 log units, 3.34
- CN1C(=O)CN=C(c2ccccc2F)c2cc(N)ccc21 — lower, 1.3
- COc1ccc(C2=NCC(=O)N(C)c3ccc(Cl)cc32)cc1 — the same, 3.15
- COCN1C(=O)CN=C(c2ccccc2F)c2cc(N)ccc21 — lower, 1.31
- O=C1CN=C(c2ccccc2F)c2ccccc2N1 — lower, 2.38
- CN1C(=O)CN=C(c2ccccc2F)c2cc(Cl)ccc21 — lower, 2.75
- COCN1C(=O)CN=C(c2ccccc2)c2cc(Cl)ccc21 — lower, 2.86
- CCN1C(=O)CN=C(c2ccccc2)c2cc(N)ccc21 — lower, 1.81
- Cc1ccc2c(c1)C(c1ccccc1)=NCC(=O)N2 — lower, 2.62
- Cc1ccccc1C1=NCC(=O)N(C)c2ccc(Cl)cc21 — within 0.2 log units, 3.03
- CCc1ccc2c(c1)C(c1ccccc1F)=NCC(=O)N2 — lower, 2.92
- O=C1CN=C(c2ccccc2)c2ccccc2N1 — lower, 2.18
- CN1C(=O)CN=C(c2ccccc2)c2cc(N)ccc21 — lower, 1.46
- O=C1CN=C(c2ccccc2C(F)(F)F)c2cc([N+](=O)[O-])ccc2N1 — lower, 2.51
- O=C1CN=C(c2c(F)cccc2F)c2ccc(Cl)cc2N1 — lower, 2.88
- O=C1CN=C(c2ccccc2[N+](=O)[O-])c2cc([N+](=O)[O-])ccc2N1 — lower, 1.61
- C[C@@H]1N=C(c2ccccc2Cl)c2cc([N+](=O)[O-])ccc2NC1=O — lower, 2.72
- O=C1CN=C(c2ccccc2F)c2cc([N+](=O)[O-])ccc2N1 — lower, 2.15
- O=C1CN=C(c2ccccc2F)c2cc(Cl)c(Cl)cc2N1 — higher, 3.63
- CN1C(=O)CN=C(c2ccccc2Cl)c2cc(Cl)ccc21 — within 0.2 log units, 3.12
- COCN1C(=O)CN=C(c2ccccc2)c2cc(N)ccc21 — lower, 1.32
- CN1C(=O)CN=C(c2ccc(Cl)cc2)c2cc(F)ccc21 — within 0.2 log units, 3.1
- CN1C(=O)CN=C(c2ccccc2F)c2cc(I)ccc21 — within 0.2 log units, 3.14
- CN1C(=O)CN=C(c2c(Cl)cccc2Cl)c2cc(Cl)ccc21 — within 0.2 log units, 3.04
- O=C1CN=C(c2ccccc2)c2cc([N+](=O)[O-])ccc2N1CC(O)CO (stereo not given) — lower, 0.96
- O=C1CN=C(c2ccc(F)cc2)c2cc(Cl)ccc2N1 — lower, 2.9
- O=C1CN=C(c2ccccc2C(F)(F)F)c2ccccc2N1 — lower, 2.47
- O=C1CN=C(c2c(F)cccc2F)c2cc(Cl)ccc2N1 — lower, 2.68
- COc1ccccc1C1=NCC(=O)Nc2ccc(Cl)cc21 — lower, 2.63
- COc1cccc(C2=NCC(=O)Nc3ccc(Cl)cc32)c1 — within 0.2 log units, 3.14
- O=C1CN=C(c2ccccc2F)c2cc(Cl)ccc2N1 — lower, 2.7
- CCN1C(=O)CN=C(c2ccccc2)c2cc(Cl)ccc21 — within 0.2 log units, 3.21
- COc1ccc2c(c1)C(c1ccccc1)=NCC(=O)N2 — lower, 2.24
- O=C1CN=C(c2cccc(C(F)(F)F)c2)c2ccccc2N1 — within 0.2 log units, 3.19
- COCN1C(=O)CN=C(c2ccccc2)c2cc([N+](=O)[O-])ccc21 — lower, 2.05
- CSc1ccccc1C1=NCC(=O)Nc2ccc(Cl)cc21 — within 0.2 log units, 2.99
- CC1N=C(c2ccccc2Cl)c2cc(Cl)ccc2N(C)C1=O (stereo not given) — higher, 3.4
- N#Cc1ccc2c(c1)C(c1ccccc1)=NCC(=O)N2 — lower, 1.82
- CSCN1C(=O)CN=C(c2ccccc2)c2cc(Cl)ccc21 — within 0.2 log units, 3.32
- CC(=O)c1ccc2c(c1)C(c1ccccc1F)=NCC(=O)N2 — lower, 1.75

From the SangsterLogP compilation
